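Interpolation was linear, between the two tested concentrations surrounding the appropriate level; five concentrations were tested over 48 hours in 96-well plates. GI50 is the concentration that inhibits growth by half.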 The source made the active and inactive calls. No stated cut-off is given here; in the data, active = GI50 up to about 1.1 µM and inactive = higher.
Key:
Experiment in all cases: growth of human tumour cells (NCI), 48 h
EKVX = tested on: EKVX
MDA-MB-435 = tested on: MDA-MB-435
SK-OV-3 = tested on: SK-OV-3
MOLT-4 = tested on: MOLT-4
NCI-H460 = tested on: NCI-H460
MDA-MB-231 = tested on: MDA-MB-231
SF-539 = tested on: SF-539
OVCAR-3 = tested on: OVCAR-3
KM12 = tested on: KM12
CCRF-CEM = tested on: CCRF-CEM
UACC-62 = tested on: UACC-62
HOP-62 = tested on: HOP-62
T47D = tested on: T47D
U-251 = tested on: U-251
COLO 205 = tested on: COLO 205
ACHN = tested on: ACHN
PC-3 = tested on: PC-3
SNB-19 = tested on: SNB-19
BT-549 = tested on: BT-549
SR = tested on: SR

SMILES | GI50 (EKVX) | GI50 (MDA-MB-435) | GI50 (SK-OV-3) | GI50 (MOLT-4) | GI50 (NCI-H460) | GI50 (MDA-MB-231) | GI50 (SF-539) | GI50 (OVCAR-3) | GI50 (KM12) | GI50 (CCRF-CEM) | GI50 (UACC-62) | GI50 (HOP-62) | GI50 (T47D) | GI50 (U-251) | GI50 (COLO 205) | GI50 (ACHN) | GI50 (PC-3) | GI50 (SNB-19) | GI50 (BT-549) | GI50 (SR)
Fc1ccc(C(OCCN2CCC3CCC(C2)N3C/C=C/c2cccnc2)c2ccc(F)cc2)cc1 (stereo not drawn) | 12.2 µM (inactive) | 11.1 µM (inactive) | 14.7 µM (inactive) | 2.48 µM (inactive) | 12.7 µM (inactive) | 13.3 µM (inactive) | 11.5 µM (inactive) | 12.8 µM (inactive) | 10.5 µM (inactive) | 4.11 µM (inactive) | 12.3 µM (inactive) | 14.2 µM (inactive) | 12.6 µM (inactive) | 11.9 µM (inactive) | 1.3 µM (inactive) | 14.2 µM (inactive) | 9.93 µM (inactive) | 15.2 µM (inactive) | 13.6 µM (inactive) | 
C=CCCCC1(C)CCNC1=S (stereo not drawn) | > 100 µM (inactive) | > 100 µM (inactive) | > 100 µM (inactive) | 66.5 µM (inactive) | > 100 µM (inactive) | > 100 µM (inactive) | > 100 µM (inactive) | > 100 µM (inactive) |  |  | > 100 µM (inactive) | > 100 µM (inactive) | > 100 µM (inactive) | > 100 µM (inactive) | > 100 µM (inactive) | > 100 µM (inactive) | > 100 µM (inactive) | > 100 µM (inactive) | > 100 µM (inactive) | 
NS(=O)(=O)c1ccc(NCc2nc3ccccc3[nH]2)cc1 | > 100 µM (inactive) | > 100 µM (inactive) | > 100 µM (inactive) |  | > 100 µM (inactive) | > 100 µM (inactive) | > 100 µM (inactive) | > 100 µM (inactive) | > 100 µM (inactive) |  | > 100 µM (inactive) | > 100 µM (inactive) | > 100 µM (inactive) | > 100 µM (inactive) | > 100 µM (inactive) | > 100 µM (inactive) | > 100 µM (inactive) | > 100 µM (inactive) | > 100 µM (inactive) | 
Sc1nn2c(COc3cc(Cl)c(OCc4nnc5sc(S)nn45)cc3Cl)nnc2s1 | 5.51 µM (inactive) | 43.9 µM (inactive) | > 100 µM (inactive) | 31.3 µM (inactive) | > 100 µM (inactive) | > 100 µM (inactive) | 87.5 µM (inactive) | 30.5 µM (inactive) | > 100 µM (inactive) |  | 28.6 µM (inactive) | > 100 µM (inactive) | 26 µM (inactive) | > 100 µM (inactive) | > 100 µM (inactive) | 36.1 µM (inactive) | > 100 µM (inactive) | > 100 µM (inactive) | 32.7 µM (inactive) | 30.1 µM (inactive)
C[C@@H](CC(O)C(O)C(C)(C)O)C1CCC23CC12CCC1[C@@]2(C)CCC(O)C(C)(C)C2CC(OC2OC(CO)C(O)C(O)C2O)[C@]13C (stereo partly drawn) | > 10 µM (inactive) | > 10 µM (inactive) | > 10 µM (inactive) | > 10 µM (inactive) | > 10 µM (inactive) | > 10 µM (inactive) | > 10 µM (inactive) | > 10 µM (inactive) | > 10 µM (inactive) | > 10 µM (inactive) | > 10 µM (inactive) | > 10 µM (inactive) | > 10 µM (inactive) | > 10 µM (inactive) | > 10 µM (inactive) | > 10 µM (inactive) | > 10 µM (inactive) | > 10 µM (inactive) | > 10 µM (inactive) | 
O=C1CSC(c2ccccc2)N1c1ccc(-c2ccc(-n3c(-c4ccccc4)nc4ccccc4c3=O)cc2)cc1 (stereo not drawn) | 55.3 µM (inactive) | 49.8 µM (inactive) | > 100 µM (inactive) | 19.6 µM (inactive) | 46 µM (inactive) | 40.9 µM (inactive) |  | 46.5 µM (inactive) | 26.2 µM (inactive) | 37.2 µM (inactive) | 34.6 µM (inactive) | > 100 µM (inactive) | 25 µM (inactive) | 56.9 µM (inactive) | 38.2 µM (inactive) | 53 µM (inactive) | 37.9 µM (inactive) | 82.8 µM (inactive) | 43.3 µM (inactive) | 19.5 µM (inactive)
c1ccc([P+](c2ccccc2)(c2ccccc2)C2c3ccccc3-c3ccccc32)cc1 |  | 0.655 µM (active) | 1.33 µM (inactive) | 1.67 µM (inactive) | 1.83 µM (inactive) | 2.52 µM (inactive) | 2.75 µM (inactive) | 1.87 µM (inactive) |  | 1.89 µM (inactive) | 1.26 µM (inactive) | 1.5 µM (inactive) | 2.71 µM (inactive) | 1.57 µM (inactive) | 1.33 µM (inactive) | 2.35 µM (inactive) | 1.47 µM (inactive) | 2.79 µM (inactive) | 2.94 µM (inactive) | 
COc1ccc2c(c1)CN1C(=N2)CSC1c1ccccc1Cl (stereo not drawn) | 16.6 µM (inactive) | 18.8 µM (inactive) | 24.3 µM (inactive) | 0.54 µM (active) | 14.3 µM (inactive) | 21.8 µM (inactive) | 14.5 µM (inactive) |  | 18 µM (inactive) |  | 17.6 µM (inactive) | 31.6 µM (inactive) | 27.7 µM (inactive) | 21.5 µM (inactive) | 12.8 µM (inactive) | 17.6 µM (inactive) | 16.3 µM (inactive) | 28.6 µM (inactive) | 25.2 µM (inactive) | 7.76 µM (inactive)
c1cnc(N2CCN(Cc3c[nH]c4ccccc34)CC2)nc1 | 85.3 µM (inactive) | 31 µM (inactive) | > 100 µM (inactive) | 36.6 µM (inactive) | 31.3 µM (inactive) | 37.2 µM (inactive) | 25.6 µM (inactive) | 52.2 µM (inactive) | 20.4 µM (inactive) | 50.1 µM (inactive) | 45.4 µM (inactive) | 56.1 µM (inactive) | 22.6 µM (inactive) | 37.1 µM (inactive) | 25.4 µM (inactive) | 27.8 µM (inactive) | 23.5 µM (inactive) | > 100 µM (inactive) | 42.1 µM (inactive) | 
COc1ccc(/C=C2\N=C3N(Cc4ccccc4)C=C(N)N3C2=O)cc1 | 59.4 µM (inactive) | > 100 µM (inactive) | 37.2 µM (inactive) | > 100 µM (inactive) | > 100 µM (inactive) | 36.2 µM (inactive) | > 100 µM (inactive) | > 100 µM (inactive) | > 100 µM (inactive) | 89.5 µM (inactive) | > 100 µM (inactive) | 39.3 µM (inactive) | > 100 µM (inactive) | 30.3 µM (inactive) | > 100 µM (inactive) | > 100 µM (inactive) | > 100 µM (inactive) | 20.8 µM (inactive) | 32.9 µM (inactive) | 
O=c1c2c3c(sc2nc2n1N=CN(c1ccc(Cl)cc1)C2)CCCC3 | 93.8 µM (inactive) | > 100 µM (inactive) | > 100 µM (inactive) | 17.9 µM (inactive) | 38 µM (inactive) | 16.7 µM (inactive) |  | 19.4 µM (inactive) | > 100 µM (inactive) | 17 µM (inactive) | 56.8 µM (inactive) | 50 µM (inactive) | 2.21 µM (inactive) | 54.1 µM (inactive) | 35.8 µM (inactive) | 75 µM (inactive) | 15.1 µM (inactive) | > 100 µM (inactive) | > 100 µM (inactive) | 15.7 µM (inactive)
COc1ccc(N2C(=O)C3CC4=CC(=O)C[C@H]4[C@H]32)cc1 (stereo partly drawn) |  | 22.9 µM (inactive) | > 100 µM (inactive) | > 100 µM (inactive) | 58.2 µM (inactive) | > 100 µM (inactive) |  | 57.7 µM (inactive) | 44 µM (inactive) |  | 45.2 µM (inactive) | 44.9 µM (inactive) | > 100 µM (inactive) | 67.9 µM (inactive) | 52.5 µM (inactive) | 53.7 µM (inactive) | 28.4 µM (inactive) | > 100 µM (inactive) | 14.9 µM (inactive) | 55.7 µM (inactive)
COc1ccc(N2C(=O)C3c4[nH]c5ccc(OCc6ccccc6)cc5c4C4CCC(C(C)(C)C)CC4C3C2=O)cc1 (stereo not drawn) | > 100 µM (inactive) | 97.7 µM (inactive) | > 100 µM (inactive) | > 100 µM (inactive) | > 100 µM (inactive) | 53.2 µM (inactive) | 46 µM (inactive) | 57.5 µM (inactive) | > 100 µM (inactive) |  | > 100 µM (inactive) | > 100 µM (inactive) | 17.5 µM (inactive) | 27.1 µM (inactive) | > 100 µM (inactive) | > 100 µM (inactive) | > 100 µM (inactive) | > 100 µM (inactive) | > 100 µM (inactive) | > 100 µM (inactive)
CCOC(=O)c1cc(C)nc2c1c(=O)n(-c1ccccc1)c(=O)n2CCCCN1CCN(c2ncccn2)CC1 | > 100 µM (inactive) | > 100 µM (inactive) | > 100 µM (inactive) | 11.3 µM (inactive) |  | 80.7 µM (inactive) |  | 94 µM (inactive) | > 100 µM (inactive) | 31.8 µM (inactive) | 37.2 µM (inactive) | > 100 µM (inactive) | 43.5 µM (inactive) | > 100 µM (inactive) | 60.1 µM (inactive) | > 100 µM (inactive) | 61.4 µM (inactive) |  | 45.1 µM (inactive) | 29.9 µM (inactive)
O=C1N2CCN=C2c2ccccc2C1(O)c1ccccc1 (stereo not drawn) | > 100 µM (inactive) | > 100 µM (inactive) |  | > 100 µM (inactive) | > 100 µM (inactive) | > 100 µM (inactive) | > 100 µM (inactive) |  | > 100 µM (inactive) | > 100 µM (inactive) | > 100 µM (inactive) | > 100 µM (inactive) | > 100 µM (inactive) | > 100 µM (inactive) | > 100 µM (inactive) | > 100 µM (inactive) | > 100 µM (inactive) | > 100 µM (inactive) | > 100 µM (inactive) | > 100 µM (inactive)
